In experiment [1] the test system is T cells. Briefly: T cell activation and proliferation, retinol cofactor requirement. The class given is cell-based, murine. On the procedure: They were seeded into 96-well flat-bottom plates at varying cellular densities in a final volume of 100 μl. In control experiments, cells were cultured in medium containing 10% FCS or 3% human serum and 5×10^-5 M 2ME. […] Cultures were carried out in duplicate. Plates were incubated at 37° C. in a humidified 5% CO2 atmosphere. Cellular proliferation was determined by [^3 H] thymidine uptake (0.5 uCi/well; New England Nuclear, Boston, Mass.) after the incubation times indicated for each experiment with a 4 hour labeling pulse. Cells were harvested onto glass filter and [^3 H]TdR incorporation was determined by liquid scintillation counting. The data presented are the means of duplicate or six replicate cultures. The restriction to duplicate measurements was necessary to conserve scarce 14HRR. […] Each experiment was repeated at least twice.

Experiment [2] deals with thymocytes. Briefly: Proliferation of anti-CD3 activated thymocytes in serum-free ITLB medium. The class given is cell-based, BALB/c mouse. The following applies: for effectiveness relative to retinol: anti-CD3, 14HRR at 12 hour intervals; for proliferative response of anti-CD3e activated thymocytes / growth kinetics over four days: retinol 3×10^-6 M, 14HRR 6×10^-7 M, human serum 3%; for growth kinetics over four days: 10^5 cells/well. On the procedure:
FIG. 14A: Purified BALB/c thymocytes were activated with immobilized anti-CD3e antibody and cultivated for four days in ITLB medium with or without retinol (3×10^-6 M), 14HRR (6×10^-7 M) (fresh 14HRR was added every 12 hours), human serum (3%) or FCS (10%) at the cellular densities shown. Proliferation was assayed by tritiated thymidine incorporation into cellular DNA.
FIG. 14B: BALB/c thymocytes (10^6 /ml) were added to microtiter plates coated with titrated amounts of anti-CD3e antibody with […] retinol or without, as indicated. Proliferation was measured in hexaduplicate wells on day 3 by ^3 H thymidine incorporation assay.
Purified thymocytes (5×10^5 cells/well) were stimulated by TCR crosslinking with immobilized anti-CD3e antibody (FIG. 15A) or 0.4 μg/ml Con A (FIG. 15B) in serum-free ITLB medium. The indicated amounts of retinoids were added either once at the beginning of the experiment (marked as "1×") or every 12 hours thereafter (marked as "6×"). DNA synthesis was measured after 72 hours by tritiated thymidine uptake as described.
Purified thymocytes (10^5 cells/well) were activated with anti-CD3 antibody in ITLB medium with or without retinol (3×10^-6 M), 14HRR (6×10^-7, added every 12 hours or human serum (3%)). DNA synthesis was measured daily by a 4 hour pulse of tritiated thymidine.
Thymocytes (5×10^4 /well) were activated by immobilized anti-CD3 mAb in medium ITLB. Retinol (2×10^-6 M) was added at initiation of culture, or delayed by 12 hours and 24 hours, respectively, or omitted altogether. ^3 H thymidine pulses of 4 hours were used to measure DNA synthesis of hexaduplicate wells.
Thymuses of 3 to 6-week-old BALB/c mice were teased in serum-free RPMI medium supplemented with 1% BSA, 10^-6 M linoleic acid and antibiotics. Depletion of accessory cells was achieved by two cycles of complement-dependent lysis with a mixture of anti-IA^d (5 μg/ml) and anti-IE^d (1:500 diluted ascites fluid). Briefly, cells were incubated on ice for 30 minutes with Ia antibodies, spun down, resuspended in 1:40 diluted rabbit complement, and incubated at 37° C. for 45 minutes. Incubations and two subsequent washes were carried out with RPMI medium containing 1% BSA. Cell viability was evaluated by trypan blue dye exclusion. To determine the extent of depletion of accessory cells, samples were stained with FITC-conjugated anti-Fc receptor antibody and analyzed by flow cytometry on a FACScan instrument (Becton Dickinson).
Cells were cultured in serum-free medium, referred to as ITLB, containing RPMI 1640 supplemented with 8×10^-7 M insulin (5 μg/ml), 7×10^-8 M transferrin (5 μg/ml), 2×10^-6 M linoleic acid, 2×10^-6 M delipidated BSA (0.12 mg/ml), 2 mM L-glutamine, 1 mM sodium pyruvate and antibiotics. They were seeded into 96-well flat-bottom plates at varying cellular densities in a final volume of 100 μl. In control experiments, cells were cultured in medium containing 10% FCS or 3% human serum and 5×10^-5 M 2ME. T cells and thymocytes were activated with immobilized, purified anti-mAb CD3e or by the addition of Con A in the presence or absence of different concentrations of retinoids. Unless indicated otherwise, retinoids were replenished every 12 hours to maintain a reasonably constant concentration of these labile compounds in culture. […] Cultures were carried out in duplicate. Plates were incubated at 37° C. in a humidified 5% CO2 atmosphere. Cellular proliferation was determined by [^3 H] thymidine uptake (0.5 uCi/well; New England Nuclear, Boston, Mass.) after the incubation times indicated for each experiment with a 4 hour labeling pulse.

For experiment [3], the system named is 5/2 cells. Briefly: Growth-supporting activity on 5/2 cells in serum-free ITLB medium. The class given is cell-based, human. On the procedure: The assay was done in 96-well microtiter plates in a final volume of 200 ul/well. The cells were cultured for 72 hours and cell growth determined by [^3 H] thymidine (0.8 μCi/well)labeling for the last 16 hours. Retinoids were added at the indicated concentrations at the initiation of culture and every 24 hours thereafter.
5/2 cells were grown in the absence of retinol in a medium containing the basic RPMI 1640 amino acid/salt mixture, insulin (5 μg/ml), transferrin (5 μg/ml), albumin (0.1%) and linoleic acid (10^-6 M) (ITLB). […] The dose-response curve shown in FIG. 26 indicates an effective concentration of 10^-7 M.

Entries after “also recorded” stand apart in the source; their conditions may differ. Read-outs that look alike come from different tables or passages of the source.

For the compound `CC(C=CC=C(C)C(O)CO)=CC=C1C(C)=CCCC1(C)C` (centres unmarked) [14HRR, 14-hydroxy-4,14-retro-retinol], in experiment [1], the “ability to substitute for retinol in T cell activation (words)” value was “effectively supports T cell activation in conjunction with a mitogen in lieu of retinol; also recorded: capable of supporting activation and sustaining proliferation of T cells; also recorded: capable of supporting T cell activation and proliferation in the absence of any extraneous source of retinal”. In experiment [2], the “effectiveness relative to retinol” value is reported as “as potent as retinol”, the “proliferative response of anti-CD3e activated thymocytes” value was “vigorous responses were elicited” and the “growth kinetics over four days” value is “exponential growth”. Also, the dose optimum in experiment [2] (provided at 12 hour intervals) is 500 nM. Further, the “effect of a single addition at start of culture” value in experiment [2] (single addition) is “ineffective; also recorded: does not enable sustained proliferation; also recorded: insufficient to drive T cell proliferation”. The “restoration of proliferation in absence of retinol” value in experiment [3] was “restores the capacity to proliferate”.

Regarding `CC1=C(/C=C/C(C)=C/C=C/C(C)=C/C(=O)O)C(C)(C)CCC1` [all-trans retinoic acid], the “ability to substitute for retinol in T cell activation (words)” value in experiment [1] (listed as retinoic acid) is “cannot be satisfied by retinoic acid; also recorded: T lymphocytes neither respond to externally provided retinoic acid”. Besides, in experiment [2], the “effectiveness relative to retinol” value was “completely inactive”.

Take `CC1=C(/C=C/C(C)=C/C=C/C(C)=C/CO)C(C)(C)CCC1` [retinol, all-trans retinol]: in experiment [1] (FCS-containing medium, absence of APC), the “T cell activation in FCS-containing medium” value is listed as “no activation in the absence of APC, whether or not additional retinol is supplied”. Moreover, the “reduction of sufficient retinol concentration with repeated feeding” value in experiment [2] (replenished twice daily, 3-day culture) is on record as “five- to ten-fold lower”. Further, in experiment [2], the “proliferative response of anti-CD3e activated thymocytes” value was “vigorous responses were elicited” and the “growth kinetics over four days” value is given as “exponential growth”. In addition, the “restoration of proliferation in absence of retinol” value in experiment [3] is recorded as “restores the capacity to proliferate”.

The record behind these values is patent US5814612A, “Retinol derivatives and uses thereof” (priority 1992, dated 1998).
